Laboratory results as given in US20100286255A1, “METHOD FOR EXTRACTING SECOISOLARICIRESINOL AND DIHYDROQUERCETIN FROM WOOD” (priority 2007, published 2010).

Key:
MCF-7 cells = assay: Proliferation of human breast cancer cells MCF-7 (estrogenic and antiestrogenic activity); format: cell-based; details: ethanol test = 100
Method: The comparative study of the proliferation of the human breast cancer cells MCF-7 under the action of estradiol, SECO, and SECO-containing extracts was carried out according to a known method (H. Adlercreutz, Y. Mousavi, “Enterolactone and estradiol inhibit each other's proliferative effect on MCF-7 breast cancer cells in culture,” J. Steroid. Biochem. Mol. Biol. 41: 615-619 (1992)). To estimate the estrogenic activity of the preparations containing SECO, 1 M solutions of the latter in ethanol (the concentration is indicated for SECO present in the solution) were added to the cell culture with achievement of the final 1 μM concentration of SECO. In each experiment on proliferation, 17β-estradiol was used as a positive standard for the estimation of the estrogenic activity and was also added as an ethanolic solution to achieve the final 1 nM concentration. To estimate the antiestrogenic activity, solutions of 17β-estradiol and the tested SECO preparations, among which there were the preparations obtained under the conditions of Examples 6, 7, and 14, were simultaneously added to the cell culture. The cell proliferation was estimated by counting the number of cells with the Coulter counter, and the results obtained are summarized in Table 2. In the test experiment (see entry 1 in Table 2), ethanol without lignan was added. Five measurements were carried out under each type of conditions.

[1] = system: Saccharomyces cerevisiae BKM Y-1173; assay: Survival rate of S. cerevisiae cells under the action of hydrogen peroxide (antioxidant activity); format: cell-based; details: antioxidant 5 mg/ml (for DHQ + SECO, total concentration of both), 1 h incubation
Method: Antioxidant activity of DHQ, SECO, and their complexes obtained under the conditions of Examples 6 and 7 was studied by a known method (D. J. Jamieson, “Saccharomyces cerevisiae has distinct adaptive responses to both hydrogen peroxide and menadione” J. Bacteriol. 174: 6678-6681 (1992)) on yeast Saccharomyces cerevisiae BKM Y-1173. The yeasts were grown to the mid-logarithmic growth stage on […] medium containing 2% glucose, the yeast extract, and mineral salts. The yeast cells were separated from the medium by centrifugation, two times washed with water, and incubated with hydrogen peroxide and antioxidants in an aqueous suspension (OD600 0.1-0.15) for 1 h with periodic shaking. Then the corresponding dilutions were made, the yeasts were seeded on the agarized glucose-peptone medium and cultivated for […] at 30° C., and the number of grown colonies and the survival rate of S. cerevisiae cells were counted (Table 1).

SMILES: C[C@]12CC[C@@H]3c4ccc(O)cc4CC[C@H]3[C@@H]1CC[C@@H]2O [17β-estradiol, reference compound]
- Proliferation of cells MCF-7, % (MCF-7 cells; positive standard alone, final 1 nM concentration): 140 ± 15%

SMILES: O=C1c2c(O)cc(O)cc2O[C@H](c2ccc(O)c(O)c2)[C@H]1O [DHQ (Example 13), Dihydroquercetin]
- Survival rate, % of test ([1]; 5 mM H2O2): 35 ± 5 % of test
- Survival rate, % of test ([1]; 10 mM H2O2): 9 ± 2 % of test
- Survival rate, % of test ([1]; Test (no H2O2)): 100 % of test

SMILES: COc1cc(C[C@@H](CO)[C@H](CO)Cc2ccc(O)c(OC)c2)ccc1O [SECO (Example 14), secoisolariciresinol]
- Proliferation of cells MCF-7, % (MCF-7 cells; antiestrogenic activity, added simultaneously with 17β-estradiol (1 nM), SECO 1 μM): 115 ± 10%
- Proliferation of cells MCF-7, % (MCF-7 cells; estrogenic activity, preparation alone, final 1 μM concentration of SECO): 115 ± 10%
- Survival rate, % of test ([1]; 5 mM H2O2): 35 ± 5 % of test
- Survival rate, % of test ([1]; 10 mM H2O2): 9 ± 1 % of test
- Survival rate, % of test ([1]; Test (no H2O2)): 100 % of test
